Measured values from ChEMBL document CHEMBL3137667, “[Drug-induced liver injury; fourteenth updated edition of the bibliographic database of liver injuries and related drugs]” (Gastroenterol Clin Biol, 2004).

Experiments:
[1] = human, serum, 4383 h
[2] = Times to onset, minimal and maximal, observed in the indexed observations. [column 'DELAI' in source]; conditions: human
[3] = human
[4] = human; remark: listed apart in the source
[5] = human; remark: listed apart in the source
[6] = human, serum
[7] = human; remark: listed apart in the source
[8] = Highest frequency of acute liver toxicity observed during clinical trials, expressed as a percentage. [column '% AIGUE' in source]; conditions: human
[9] = human; remark: listed apart in the source
[10] = human; remark: listed apart in the source
[11] = human; remark: listed apart in the source
[12] = Highest frequency of moderate liver toxicity observed during clinical trials, expressed as a percentage. [column '% BIOL' in source]; conditions: human
[13] = human; remark: listed apart in the source
[14] = human, serum; remark: listed apart in the source
[15] = human; remark: listed apart in the source
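For Hepatotoxicity (association with vascular disease) in this document: count of indexed literature references reporting vascular liver injury in humans, e.g. peliosis hepatitis, hepatic veno-occlusive disease or Budd-Chiari syndrome.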
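For Hepatotoxicity (benign tumour) in this document: value is a count of indexed literature references citing a benign tumour confirmed by histopathology.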
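For Hepatotoxicity (choleostasis) in this document: human cholestatic liver injury, shown by histopathology or by peak ALT or AST elevation over alkaline phosphatase ratio below 2, value counts indexed literature reports.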
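For Hepatotoxicity (chronic liver disease) in this document: chronic liver injury confirmed by histopathology or persistently raised serum aminotransferase activity beyond 6 months, value given as the count of indexed literature references.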
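For Hepatotoxicity (cirrhosis) in this document: value is a count of indexed literature references reporting cirrhosis confirmed by histopathology.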
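For Hepatotoxicity (cytolytic) in this document: human cytolytic liver injury, shown by histopathology or by a ratio above 5 of peak ALT or AST elevation to alkaline phosphatase elevation, value counts indexed references.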
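For Hepatotoxicity (granulomatous hepatitis) in this document: value is a count of indexed literature references reporting granulomatous liver disease confirmed by histopathology.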
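For Hepatotoxicity (malignant tumour) in this document: malignant tumour confirmed by histopathology, value gives the count of indexed literature references reporting it.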
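For Hepatotoxicity (severe hepatitis) in this document: human clinical data: severe hepatitis, meaning potentially life-threatening liver failure or clinically observed cases, the value counts how many indexed literature references report it.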
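For Hepatotoxicity (steatosis) in this document: steatosis confirmed by histopathology, value is the count of indexed references.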

Molecule | Hepatotoxicity (chronic liver disease) [1] | Hepatotoxicity (time to onset) [2] | Hepatotoxicity (malignant tumour) [3] | Hepatotoxicity (granulomatous hepatitis) [4] | Hepatotoxicity (association with vascular disease) [5] | Hepatotoxicity (moderate) [6] | Hepatotoxicity (cytolytic) [7] | Hepatotoxicity (acute) [8] [%] | Hepatotoxicity (severe hepatitis) [9] | Hepatotoxicity (steatosis) [10] | Hepatotoxicity (choleostasis) [11] | Hepatotoxicity (moderate) [12] [%] | Hepatotoxicity (benign tumour) [13] | Hepatotoxicity (acute) [14] | Hepatotoxicity (cirrhosis) [15]
O=c1[nH]c(=O)n([C@H]2C[C@H](O)[C@@H](CO)O2)cc1I [IDOXURIDINE] | 0 | 1 week - 2 weeks | 0 | 0 | 0 | 3 | 0 | 0 | 0 | 0 | 1 | 3.6 | 0 | 1 | 0
O=c1[nH]c2ccccc2n1C1CCN(CCCC(c2ccc(F)cc2)c2ccc(F)cc2)CC1 [PIMOZIDE] | 0 | 3 days | 0 | 0 | 0 | 2 | 0 | 0 | 0 | 0 | 0 | 0 | 0 | 0 | 0
NS(=O)(=O)c1cc(C(=O)O)cc(N2CCCC2)c1Oc1ccccc1 [PIRETANIDE] | 0 | 3 weeks | 0 | 0 | 0 | 0 | 1 | 0 | 0 | 0 | 0 | 0 | 0 | 1 | 0
Cc1cc(C(=O)NNCc2ccccc2)no1 [ISOCARBOXAZID] | 0 | 1 month - 4 months | 0 | 0 | 0 | 1 | 4 | 0 | 1 | 0 | 2 | 0 | 0 | 4 | 0
CC(=O)OCC(=O)NCCCOc1cccc(CN2CCCCC2)c1 [ROXATIDINE ACETATE] | 0 | 4 weeks | 0 | 0 | 0 | 2 | 0 | 0.5 | 0 | 0 | 0 | 0.4 | 0 | 1 | 0
CC(=O)[C@H]1CC[C@H]2[C@@H]3CC[C@@H]4C[C@H](O)CC[C@]4(C)[C@H]3CC[C@]12C [ELTANOLONE] | 0 | 1 days | 0 | 0 | 0 | 2 | 0 | 0 | 0 | 0 | 0 | 12.6 | 0 | 0 | 0
COCCCOc1ccnc(C[S+]([O-])c2nc3ccccc3[nH]2)c1C (stereo not given) [RABEPRAZOLE] | 0 | 4 weeks | 0 | 0 | 0 | 0 | 1 | 0 | 1 | 0 | 0 | 0 | 0 | 1 | 0
CNCCON=c1c2ccccc2ccc2ccccc12 [DEMEXIPTILINE] | 0 | 6 weeks | 0 | 0 | 0 | 0 | 1 | 0 | 0 | 0 | 1 | 0 | 0 | 1 | 0
C[C@H]1[C@H](OC(=O)CCC(=O)O)O[C@@H]2O[C@@]3(C)CC[C@H]4[C@H](C)CC[C@@H]1[C@@]24OO3 [ARTESUNATE] | 0 | 48 days | 0 | 0 | 0 | 0 | 1 | 6.7 | 0 | 0 | 0 | 0 | 0 | 1 | 0
CC(C)COCC(CN(Cc1ccccc1)c1ccccc1)N1CCCC1 (stereo not given) [BEPRIDIL] | 0 | 4 days - 20 days | 0 | 0 | 0 | 3 | 1 | 0 | 0 | 1 | 0 | 2.8 | 0 | 1 | 0
CC(C)(S)C(=O)N[C@@H](CS)C(=O)O [BUCILLAMINE] | 0 | 2 weeks | 0 | 0 | 0 | 5 | 0 | 0 | 0 | 0 | 0 | 9.4 | 0 | 0 | 0
UROKINASE | 0 | 2 days | 0 | 0 | 0 | 0 | 1 | 0 | 0 | 0 | 0 | 0 | 0 | 1 | 0
CCCC(C)(COC(N)=O)COC(=O)NC(C)C (stereo not given) [CARISOPRODOL] | 0 | 2 weeks | 0 | 0 | 0 | 0 | 1 | 0 | 0 | 0 | 0 | 0 | 0 | 1 | 0
C=CC(N)CCC(=O)O (stereo not given) [VIGABATRIN] | 0 | 9 months | 0 | 0 | 0 | 3 | 2 | 0 | 1 | 0 | 0 | 13.3 | 0 | 2 | 0
C[C@H]1COc2c(N3CCN(C)CC3)c(F)cc3c(=O)c(C(=O)O)cn1c23.C[C@H]1COc2c(N3CCN(C)CC3)c(F)cc3c(=O)c(C(=O)O)cn1c23.O [LEVOFLOXACIN] | 0 | 2 days - 3 weeks | 0 | 0 | 0 | 17 | 6 | 0 | 5 | 0 | 2 | 30 | 0 | 7 | 0
